Test results: US20250188079A1, “INHIBITING CYCLIC AMP-RESPONSIVE ELEMENT-BINDING PROTEIN (CREB)” (Forma Therapeutics, Inc., priority 2019, published 2025)

Biological target: CBP (Homo sapiens (Human), UniProt Q92793)
Assay: HTRF biochemical assay for CBP activity (TR-FRET, bromodomain)
Assay type: binding
Settings: geometric mean, 10-point 3-fold dilution 33 μM to 1.7 nM, read-out: BROMO IC50 TRF TB CBP (μM gmean)
In short: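 IC50 derives from a 4-parameter logistic fit of % inhibition, calculated from the 520/490 nm TR-FRET ratio against DMSO and no-enzyme controls. Final compound levels spanned 33 μM to 1.7 nM (10 points, 3-fold), with CBP and peptide ligand in Hepes pH 7.5/GSH/BGG/BSA/Triton buffer, incubated at room temperature for varying times.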

Sequence of CBP (Q92793 1085-1192): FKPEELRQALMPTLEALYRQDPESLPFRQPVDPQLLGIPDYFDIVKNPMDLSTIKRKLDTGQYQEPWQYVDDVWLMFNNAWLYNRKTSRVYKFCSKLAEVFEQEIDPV

Compound	IC50 [µM]
COC(=O)N1CCc2ccc3c(nc([C@H]4CC[C@H](C(=O)O)CC4)n3[C@@H](C)C[C@H]3CC[C@H](OC)CC3)c2C1 [Compound 202]	0.01 to 0.1
COC(=O)N1CCc2ccc3c(nc(N4CCNCC4)n3[C@@H](C)Cc3ccccc3)c2C1 [Compound 198]	0.01 to 0.1
COC(=O)N1CCc2ccc3c(nc(C4CCCCC4)n3CC[C@@H]3CCC[C@@H](C(=O)O)C3)c2C1 [Compound 168]	0.001 to 0.01
COC(=O)N1CCc2cc(CC(=O)O)c3c(nc(C4CCCCC4)n3CCc3ccccc3)c2C1 [Compound 158]	0.001 to 0.01
COC(=O)N1CCc2ccc3c(nc(C4CCCCC4)n3C[C@@H](CC(=O)O)c3ccc(F)c(F)c3)c2C1 [Compound 4, (3S)-4-[2-cyclohexyl-8-(methoxycarbonyl)-3H,6H,7H,8H,9H-imidazo[4,5-h]isoquinolin-3-yl]-3-(3,4-difluorophenyl)butanoic acid]	0.001 to 0.01
COC(=O)N1CCc2ccc3c(nc(C4CCCC4)n3C[C@H](C(=O)O)c3ccccc3)c2C1 [Compound 55]	0.001 to 0.01
COC(=O)N1CCc2ccc3c(nc([C@H]4CC[C@H](C(=O)O)CC4)n3[C@@H](C)Cc3ccccc3)c2C1 [Compound 192]	0.01 to 0.1
COC(=O)N1CCc2ccc3c(nc(C4CCN(C(C)=O)CC4)n3[C@H](C)Cc3cccnc3)c2C1 [Compound 346]	0.1 to 1
COC(=O)N1CCc2ccc3c(nc(C4CCCCC4)n3C[C@H]3CC[C@@H](C(=O)O)CC3)c2C1 [Compound 221]	0.01 to 0.1
COC(=O)N1CCc2ccc3c(nc([C@H]4CC[C@H](C(=O)O)CC4)n3[C@H](CO)Cc3ccc(F)c(F)c3)c2C1 [Compound 288]	0.01 to 0.1
COC(=O)N1CCc2ccc3c(nc([C@H]4CC[C@H](S(N)(=O)=O)CC4)n3[C@H](C)Cc3ccccc3)c2C1 [Compound 301]	0.1 to 1
COC(=O)N1CCc2ccc3c(nc(N4CCC[C@@H](C(=O)O)C4)n3C[C@H](C)c3ccccc3)c2C1 [Compound 144]	0.001 to 0.01
COC(=O)N1CCc2ccc3c(nc([C@H]4CC[C@H](C(=O)O)CC4)n3Cc3ccc(OC(F)F)cc3)c2C1 [Compound 171]	0.001 to 0.01
COC(=O)N1CCc2ccc3c(nc(N4CCC(C(=O)O)CC4)n3[C@H](C)Cn3cc(C(F)(F)F)cn3)c2C1 [Compound 285]	0.01 to 0.1
COC(=O)N1CCc2ccc3c(nc(C4CCC4)n3C[C@@H](C(=O)O)c3ccccc3)c2C1 [Compound 157]	0.001 to 0.01
COC(=O)N1CCc2ccc3c(nc([C@H]4CC[C@H](C(=O)O)CC4)n3[C@H](C)[C@@H](O)c3ccccc3)c2C1 [Compound 146]	0.001 to 0.01
COC(=O)N1CCc2ccc3c(nc([C@H]4CC[C@H](C(=O)O)CC4)n3[C@H](C)C[C@H]3CC[C@H](OC)CC3)c2C1 [Compound 287]	0.01 to 0.1
COC(=O)N1CCc2ccc3c(nc([C@H]4CC[C@H](C(=O)O)CC4)n3Cc3ccc4c(c3)OCC4)c2C1 [Compound 86]	0.001 to 0.01
COC(=O)N1CCc2ccc3c(nc(C4CCCCC4)n3C[C@H](O)c3cccc(C(=O)O)c3)c2C1 [Compound 173]	0.01 to 0.1
COC(=O)N1CCc2ccc3c(nc(C4CCCCC4)n3CC[C@@H]3CCCC[C@H]3C(=O)O)c2C1 [Compound 235]	0.01 to 0.1
COC(=O)N1CCc2ccc3c(nc(-c4ccc(CC(=O)O)cc4)n3[C@@H](C)Cc3ccccc3)c2C1 [Compound 78]	0.001 to 0.01
COC(=O)N1CCc2ccc3c(nc(-c4cccnc4)n3[C@@H](C)Cc3ccccc3)c2C1 [Compound 127]	0.001 to 0.01
COC(=O)N1CCc2ccc3c(nc(-c4ccc(C(=O)O)c(OC)c4)n3[C@H](C)Cc3ccccc3)c2C1 [Compound 321]	0.1 to 1
COC(=O)N1CCc2ccc3c(nc(-c4ccncc4)n3[C@H](C)Cc3ccccc3)c2C1 [Compound 326]	0.1 to 1

Compound	IC50 [µM]
COC(=O)N1CCc2ccc3c(nc(N4CCC(C(=O)O)CC4)n3[C@H](C)Cc3ccccc3)c2C1 (single isomer, unassigned) [Compound 325]	0.1 to 1
COC(=O)N1CCc2c(C#N)cc3c(nc([C@H]4CC[C@H](C(=O)O)CC4)n3[C@@H](C)Cc3ccccc3)c2C1 [Compound 52]	0.001 to 0.01
COC(=O)N1CCc2ccc3c(nc(N4CCC(C(=O)CO)CC4)n3[C@H](C)Cc3ccccc3)c2C1 [Compound 313]	0.1 to 1
COC(=O)N1CCc2ccc3c(nc([C@H]4CCC[C@@H](C(=O)O)C4)n3[C@@H](C)Cc3ccccc3)c2C1 (single isomer, unassigned) [Compound 13]	0.001 to 0.01
COC(=O)N1CCc2ccc3c(nc(-c4ccccn4)n3[C@H](C)Cc3ccccc3)c2C1 [Compound 304]	0.1 to 1
COC(=O)N1CCc2ccc3c(nc([C@H]4CC[C@H](C(=O)O)CC4)n3[C@H](C)Cc3ccc(F)c(OC)c3)c2C1 [Compound 286]	0.01 to 0.1
COC(=O)N1CCc2ccc3c(nc(C4CCCCC4)n3[C@@H](C)C[C@H]3CC[C@H](C(=O)O)CC3)c2C1 [Compound 48]	0.001 to 0.01
COC(=O)N1CCc2ccc3c(nc(C4CCCCC4)n3[C@@H](CC(=O)O)c3ccccc3)c2C1 [Compound 213]	0.01 to 0.1
COC(=O)N1CCc2ccc3c(nc(C4CCCCC4)n3CC[C@@H]3CCCC[C@@H]3C(=O)O)c2C1 [Compound 219]	0.01 to 0.1
COC(=O)N1CCc2ccc3c(nc([C@H]4CC[C@H](C(=O)O)CC4)n3[C@H](C)CC3CCCCC3)c2C1 [Compound 114]	0.001 to 0.01
COC(=O)N1CCc2ccc3c(nc(C4CCCCC4)n3C[C@@H](CC(=O)O)c3ccccc3)c2C1 [Compound 8]	0.001 to 0.01
COC(=O)N1CCc2ccc3c(nc(N4CCN(S(C)(=O)=O)CC4)n3[C@@H](C)Cn3cc(Cl)cn3)c2C1 [Compound 66]	0.001 to 0.01
COC(=O)N1CCc2ccc3c(nc(N4CCC[C@@H](C(=O)O)C4)n3[C@@H](C)Cc3ccccc3)c2C1 [Compound 82]	0.001 to 0.01
COC(=O)N1CCc2ccc3c(nc([C@@H]4CCC[C@@H](C(=O)O)C4)n3Cc3cncc(Cl)n3)c2C1 [Compound 293]	0.1 to 1
COC(=O)N1CCc2ccc3c(nc(N4CCC(C(=O)O)CC4)n3[C@@H](C)Cc3ccc(F)c(F)c3)c2C1 (single isomer, unassigned) [Compound 23]	0.001 to 0.01
COC(=O)N1CCc2ccc3c(nc(C4CCN(S(C)(=O)=O)CC4)n3[C@H](C)Cc3ccccc3)c2C1 [Compound 319]	0.1 to 1
COC(=O)N1CCc2ccc3c(nc(C4CCCCC4)n3[C@H](CC(=O)O)c3ccccc3)c2C1 [Compound 180]	0.01 to 0.1
COC(=O)N1CCc2ccc3c(nc([C@H]4CC[C@H](C(=O)O)CC4)n3[C@@H](C)C[C@@H]3CCCCO3)c2C1 [Compound 260]	0.01 to 0.1
(2R)-3-[2-cyclohexyl-8-(methoxycarbonyl)-3H,6H,7H,8H,9H-imidazo[4,5-h]isoquinolin-3-yl]-2-(5-fluoro-2-methoxyphenyl)propanoic acid [Compound 241]	0.01 to 0.1
COC(=O)N1CCc2cc(C#N)c3c(nc([C@H]4CC[C@H](C(=O)O)CC4)n3CCc3ccccc3)c2C1 [Compound 153]	0.001 to 0.01
COC(=O)N1CCc2ccc3c(nc([C@H]4CCC[C@H](C(=O)O)C4)n3C[C@H]3CC[C@@H](OC)CC3)c2C1 [Compound 245]	0.01 to 0.1
COC(=O)N1CCc2ccc3c(nc(N4CCCCC4)n3C[C@@H](CC(=O)O)c3ccccc3)c2C1 [Compound 47]	0.001 to 0.01
COC(=O)N1CCc2ccc3c(nc(C4CCCCC4)n3C[C@H](C(=O)O)c3ccccc3)c2C1 [Compound 38]	0.001 to 0.01
